US12139487B2, “Compounds and uses thereof” (Foghorn Therapeutics Inc., priority 2022, dated 2024)

What was measured:
[1] = test system: BRM-dependent transcription (BRG1 mutant lung cancer cell line A549); assay: BRM-dependent transcription, MMTV luciferase reporter in BRG1 mutant A549 cells; type: cell-based; conditions: Table 11; for IC50: Homo sapiens, A549, 6 h, A549-MMTV luciferase reporter, dexamethasone induced, 6 hours; for Ratio (MDA-MMTV IC50 (μM) divided by A549-MMTV IC50 (μM)): MMTV luciferase reporter cell lines, selectivity BRG1/BRM
Description: The potential inhibitory effects of compounds on BRG1 and BRM dependent transcription was study by testing the activity of against the BRG1 mutant lung cancer cell line A549 and a MDA cell line with BRM removed by CRISPR. Both cell lines were genetically engineered with a BRG1 or BRM-dependent mouse mammary tumor virus luciferase reporter. Luciferase transcription was induced by dexamethasone in the presence of compound at different concentrations and luminescence was measured using a plate reader 6 hours after stimulation.

BRM = biological target: T1, BRM (Homo sapiens, UniProt P51531); assay: ATPase catalytic activity assay (ADP-Glo), BRM; type: biochemical; conditions: ATPase assay, selectivity BRG1/BRM, Table 10
T1 construct: made in house; host or cells: High Five insect cells
T1 sequence (P51531 whole entry): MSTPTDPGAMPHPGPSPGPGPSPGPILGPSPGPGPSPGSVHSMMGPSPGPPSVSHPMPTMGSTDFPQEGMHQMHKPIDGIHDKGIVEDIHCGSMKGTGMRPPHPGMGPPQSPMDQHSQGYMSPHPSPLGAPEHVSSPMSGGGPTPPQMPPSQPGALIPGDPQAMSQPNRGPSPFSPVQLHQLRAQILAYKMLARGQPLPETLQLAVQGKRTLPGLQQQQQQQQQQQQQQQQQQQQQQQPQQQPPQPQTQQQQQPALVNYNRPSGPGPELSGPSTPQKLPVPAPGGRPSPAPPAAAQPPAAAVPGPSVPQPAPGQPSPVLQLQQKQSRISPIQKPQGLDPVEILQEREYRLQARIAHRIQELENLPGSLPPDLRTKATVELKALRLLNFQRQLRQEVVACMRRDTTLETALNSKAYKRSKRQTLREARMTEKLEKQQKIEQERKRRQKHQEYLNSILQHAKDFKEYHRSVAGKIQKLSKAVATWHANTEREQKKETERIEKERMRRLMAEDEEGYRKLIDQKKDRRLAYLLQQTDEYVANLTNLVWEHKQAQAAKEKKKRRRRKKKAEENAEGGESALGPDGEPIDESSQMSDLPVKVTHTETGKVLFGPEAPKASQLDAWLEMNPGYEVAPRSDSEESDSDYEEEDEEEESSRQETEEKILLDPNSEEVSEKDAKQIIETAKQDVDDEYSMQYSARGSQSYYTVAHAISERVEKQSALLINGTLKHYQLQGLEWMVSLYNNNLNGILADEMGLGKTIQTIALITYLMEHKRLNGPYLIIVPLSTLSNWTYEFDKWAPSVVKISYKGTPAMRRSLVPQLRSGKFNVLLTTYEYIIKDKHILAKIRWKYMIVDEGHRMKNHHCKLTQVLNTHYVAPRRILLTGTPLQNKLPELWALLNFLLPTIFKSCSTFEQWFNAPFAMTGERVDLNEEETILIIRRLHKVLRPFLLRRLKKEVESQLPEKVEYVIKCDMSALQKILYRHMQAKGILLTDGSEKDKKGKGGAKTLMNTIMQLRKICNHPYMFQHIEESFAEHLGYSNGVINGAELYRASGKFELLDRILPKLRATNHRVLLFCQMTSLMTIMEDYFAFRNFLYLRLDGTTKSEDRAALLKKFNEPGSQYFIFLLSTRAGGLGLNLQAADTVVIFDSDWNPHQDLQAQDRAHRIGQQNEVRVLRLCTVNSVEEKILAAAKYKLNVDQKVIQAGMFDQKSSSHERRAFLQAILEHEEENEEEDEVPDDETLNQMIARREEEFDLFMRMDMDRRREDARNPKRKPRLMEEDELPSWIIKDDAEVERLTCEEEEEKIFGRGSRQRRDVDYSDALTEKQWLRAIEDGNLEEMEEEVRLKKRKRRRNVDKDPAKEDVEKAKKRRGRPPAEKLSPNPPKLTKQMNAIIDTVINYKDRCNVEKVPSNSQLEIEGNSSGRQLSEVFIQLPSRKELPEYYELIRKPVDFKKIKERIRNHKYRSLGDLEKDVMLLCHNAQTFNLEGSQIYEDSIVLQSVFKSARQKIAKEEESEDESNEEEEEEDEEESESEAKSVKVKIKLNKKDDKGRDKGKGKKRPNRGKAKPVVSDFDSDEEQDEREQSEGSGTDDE
Description: The ATPase catalytic activity of BRM or BRG-1 was measured by an in vitro biochemical assay using ADP-Glo™ (Promega, V9102). The ADP-Glo™ kinase assay is performed in two steps once the reaction is complete. The first step is to deplete any unconsumed ATP in the reaction. The second step is to convert the reaction product ADP to ATP, which will be utilized by the luciferase to generate luminesce and be detected by a luminescence reader, such as Envision.
The assay reaction mixture […] contains 30 nM of BRM or BRG-1, 20 nM salmon sperm DNA (from Invitrogen, UltraPure™ Salmon Sperm DNA Solution, cat #15632011), and 400 μM of ATP in the ATPase assay buffer, which comprises of 20 mM Tris, pH 8, 20 mM MgCl2, 50 mM NaCl, 0.1% Tween-20, and 1 mM fresh DTT (Pierce™ DTT (Dithiothreitol), cat #20290). The reaction is initiated by the addition of the 2.5 μL ATPase solution to 2.5 μL ATP/DNA solution on low volume white Proxiplate-384 plus plate (PerkinElmer, cat #6008280) and incubates at room temperature for 1 hour. Then, following addition of 5 μL of ADP-Glo™ Reagent provided in the kit, the reaction incubates at room temperature for 40 minutes. Then, 10 μL of Kinase Detection Reagent provided in the kit is added to convert ADP to ATP, and the reaction incubates at room temperature for 60 minutes. Finally, luminescence measurement is collected with a plate-reading luminometer, such as Envision.

SMILES | IC50 [1] | Ratio (MDA-MMTV IC50 (μM) divided by A549-MMTV IC50 (μM)) [1] | Ratio (BRG1 IC50 (μM) divided by BRM IC50 (μM)) (BRM)
COC1(c2cccc(-c3ccc4cnc(CNC(=O)c5cc(F)c6c(c5)S(=O)(=O)[C@@H](F)CCO6)cc4n3)n2)CC1 [Compound 403] | 0.014 µM | 27.49 | 
O=C(NCc1cc2nc(-c3ccc([C@H](F)C(F)F)c(C4CC4)n3)ccc2cn1)c1cc(Br)c2c(c1)S(=O)(=O)[C@@H](F)COC2 [Compound 492] | 0.0166 µM | 24.09 | 
O=C(NCc1cc2nc(-n3cc(F)c(OC(F)F)n3)ccc2cn1)c1cc(C(F)F)c2c(c1)S(=O)(=O)[C@@H](F)COC2 [Compound 514, (2R)—N-[[2-[3-(difluoromethoxy)-4-fluoro-pyrazol-1-yl]-1,6-naphthyridin-7-yl]methyl]-6-(difluoromethyl)-2-fluoro-1,1-dioxo-3,5-dihydro-2H-4,1benzoxathiepine-8-carboxamide] | 0.021 µM | 32.01 | 
COCCOc1cnc2c(c1)CCCN2c1ccc2cnc(CNC(=O)c3cc(Br)c4c(c3)S(=O)(=O)[C@@H](F)COC4)cc2n1 [Compound 427] | 0.0206 µM | 32.84 | 
COCCOc1cnc2c(c1)CCCN2c1ccc2cnc(CNC(=O)c3cc(C(F)F)c4c(c3)S(=O)(=O)[C@@H](F)COC4)cc2n1 [Compound 439] | 0.0133 µM | 27.20 | 
O=C(NCc1cc2nc(-c3ccc(C(F)F)c(C4CC4)n3)ccc2cn1)c1cc(Cl)c2c(c1)S(=O)(=O)[C@@H](F)CCO2 [Compound 371] | 0.0079 µM | 21.86 | 
Cc1cc(C(=O)NCc2cc3nc(-c4ccc(C(F)F)c(C5CC5)n4)ccc3cn2)cc2c1COC[C@H](F)S2(=O)=O [Compound 397] | 0.0053 µM | 29.48 | 
COc1nc([C@@H](F)CF)ccc1-c1ccc2cnc(CNC(=O)c3cc(Br)c4c(c3)S(=O)(=O)[C@@H](F)COC4)cc2n1 [Compound 450] | 0.0154 µM | 35.43 | 
CCOc1nc(C(F)F)ccc1-c1ccc2cnc(CNC(=O)c3cc(C(F)F)c4c(c3)S(=O)(=O)[C@@H](F)COC4)cc2n1 [Compound 430] | 0.0081 µM | 40.24 | 
O=C(NCc1cc2nc(-c3cccc4c3OC(F)(F)O4)ccc2cn1)c1cc(C(F)F)c2c(c1)S(=O)(=O)[C@@H](F)COC2 [Compound 503] | 0.0173 µM | 33.25 | 
[2H]C([2H])([2H])Oc1ccc(-c2ccc3cnc(CNC(=O)c4cc(Br)c5c(c4)S(=O)(=O)[C@@H](F)COC5)cc3n2)nc1C1CC1(F)F (stereo partly drawn) [Compound 480] | 0.0094 µM | 38.09 | 
[2H]C([2H])([2H])Oc1nc([C@H](C)F)ccc1-c1ccc2cnc(CNC(=O)c3cc(F)c4c(c3)S(=O)(=O)[C@@H](F)CCO4)cc2n1 [Compound 384] | 0.0064 µM | 29.60 | 
CCOc1nc([C@H](F)CF)ccc1-c1ccc2cnc(CNC(=O)c3cc(F)c4c(c3)S(=O)(=O)[C@@H](F)CCO4)cc2n1 [Compound 390] | 0.0074 µM | 22.68 | 
[2H]C([2H])([2H])Oc1ccc(-c2ccc3cnc(CNC(=O)c4cc(Br)c5c(c4)S(=O)(=O)[C@@H](F)COC5)cc3n2)nc1C1CC1 [Compound 522] | 0.0214 µM | 29.68 | 
C[C@@H]1CN(c2cccc(-c3ccc4cnc(CNC(=O)c5cc(F)c6c(c5)S(=O)(=O)[C@@H](F)CCO6)cc4n3)n2)C[C@H](C)O1 [Compound 14] |  |  | 9.92
C[C@@H]1CN(c2cccc(-c3ccc4cnc(CNC(=O)c5cc(F)c6c(c5)S(=O)(=O)[C@@H](F)CCO6)cc4n3)n2)C[C@H](C)O1 [Compound 325] |  |  | 13.06
